# Test results as given in patent publication US10023591B2, “Heterocyclic derivatives and use thereof” (C&C RESEARCH LABORATORIES, priority 2014, dated 2018).
# What was measured:
# STAT3 = STAT3 reporter gene assay (luciferase), LNCaP stable cell line pSTAT3-TA-luc, IL-6 stimulation; type: cell-based, human; details: Homo sapiens
# Summary of the method: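 LNCaP cells stably carrying pSTAT3-TA-luc were plated 24 h in 3% DCC-FBS medium, then given compound followed by IL-6 (10 ng/mL final) for 24 h at 37 °C. Luciferase was read from lysates, with CellTiter-Glo viability on a duplicate plate. Stimulated 0.1% DMSO wells served as uninhibited control.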
# STAT1 = STAT1 reporter gene assay (luciferase), U2OS stable cell line pGL4-STAT1-TA-luc, IFN-γ stimulation; type: cell-based, human; details: Homo sapiens, IFN-γ 50 ng/mL, 8 hours, read-out: IC50 (μM) pSTAT1
# Summary of the method: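 U2OS cells stably carrying a STAT1-driven luciferase reporter were treated with serially diluted compounds plus IFN-γ (50 ng/mL final) for 8 h at 37 °C in 10% FBS medium. Luciferase read after lysis; parallel plate assessed for cytotoxicity by CellTiter-Glo.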
# [1] = test system: LNCaP prostate cancer cell line; test: Cell growth inhibition assay, LNCaP (CellTiter-Glo); type: cell-based; details: Homo sapiens; LNCaP, 10,000 cells/well, medium with 10 ng/mL IL-6, 96 hours
# Method: (§1) The inhibitory effects of the compounds of the present invention against the growth of cancer cells were evaluated as shown below. The cancer cell lines including prostate cancer cell lines (LNCaP, DU-145), stomach cancer cell line (NCI-N87), and breast cancer cell lines (MDA-MB-468) were cultured under the protocol provided by each supplier. A medium supplemented with 10 ng/mL of IL-6 was used for LNCaP, a prostate cancer cell line, when treated with a drug. Each type of cells to be used in experiments was sub-cultured in a 96-well plate by counting the exact number of cells using Tali™ Image-based Cytometer (Life Technologies). In a 96-well plate, DU-145 was employed with 3,000 cells/well; NCI-N87 was employed with 5,000 cells/well; and LNCaP and MDA-MB-468 were employed with 10,000 cells/well. The cells were treated with the compounds listed in Examples which were diluted in various concentrations. Upon completion of the compounds treatment, LNCaP, DU-145, NCI-N87 cells were cultured at 37° C. under 5% CO2 for 96 hours, and MDA-MB-468 cells were cultured at 37° C. in air for 96 hours. Subsequently, the cells were observed under microscope and drug precipitation and particular findings were investigated and recorded. And then, the 96-well plate was placed at room temperature for 30 minutes, added with 20 pt/well of CellTiter-Glo solution (Cat No. G7573, Promega) and shaken for 10 minutes, followed by being subjected to the measurement using PHERAstar™ microplate reader (BMG LABTECH) according to the supplier's general luminometer protocol. Wells where only culture liquid added without cell plating were used as a negative control, whereas wells where culture liquid containing 0.1% DMSO instead of the compounds listed in Examples were used as a positive control.
# [2] = test system: DU-145 prostate cancer cell line; test: Cell growth inhibition assay, DU-145 (CellTiter-Glo); type: cell-based; details: Homo sapiens; DU-145, 3,000 cells/well, 96 hours
# Method: as §1
IC50 (STAT3) [µM],IC50 (STAT1) [µM],IC50 [1] [µM],IC50 [2] [µM],SMILES
0.034,> 50,0.072,0.066,"CC(C)(c1ccc(Cl)cc1)c1cc(Cl)cc(NC(=O)c2cc3cc(C(F)S(C)(=O)=O)ccc3s2)c1 (centres unmarked) [Example 25, N-(3-chloro-5-(2-(4-chlorophenyl)propan-2-yl)phenyl)-5-(fluoro(methylsulfonyl)methyl)benzo[b]thiophene-2-carboxamide]"
0.031,> 50,0.031,0.0066,"CN(c1cc(Cl)cc(NC(=O)c2cc3cc(C(C)(C)S(C)(=O)=O)ccc3s2)c1)c1ccc(F)cc1F [Example 98, N-(3-chloro-5-((2,4-difluorophenyl)(methyl)amino)phenyl)-5-(2-(methylsulfonyl)propan-2-yl)benzo[b]thiophene-2-carboxamide]"
0.054,> 50,0.03,0.023,"CC(C)(c1ccc(Cl)cc1)c1cc(Cl)cc(NC(=O)c2cc3cc(C4(S(C)(=O)=O)CC4)ccc3s2)c1 [Example 33, N-(3-chloro-5-(2-(4-chlorophenyl)propan-2-yl)phenyl)-5-(1-(methylsulfonyl)cyclopropyl)benzo[b]thiophene-2-carboxamide]"
0.11,> 50,0.14,0.046,"CN(c1ccc(Cl)cc1)c1cc(Cl)cc(NC(=O)c2cc3cc(C(C)(C)S(C)(=O)=O)ccc3s2)c1 [Example 99, N-(3-chloro-5-((4-chlorophenyl)(methyl)amino)phenyl)-5-(2-(methylsulfonyl)propan-2-yl)benzo[b]thiophene-2-carboxamide]"
0.028,35.7,0.023,0.013,"CS(=O)(=O)Cc1ccc2sc(C(=O)Nc3cc(Cl)cc(-c4ccc(F)cc4F)c3)cc2c1 [Example 95, N-(5-chloro-2′,4′-difluoro-[1,1′-biphenyl]-3-yl)-5-((methylsulfonyl)methyl)benzo[b]thiophene-2-carboxamide]"
0.025,> 50,0.028,0.016,"CC(C)(c1ccc2sc(C(=O)Nc3cc(Cl)cc(C4(c5ccc(Cl)cc5)CC4)c3)cc2c1)S(C)(=O)=O [Example 97, N-(3-chloro-5-(1-(4-chlorophenyl)cyclopropyl)phenyl)-5-(2-(methylsulfonyl)propan-2-yl)benzo[b]thiophene-2-carboxamide]"
0.034,> 50,0.046,0.032,"CC(C)(c1ccc2sc(C(=O)Nc3cc(Oc4ccc(Cl)cc4)cc(Cl)n3)cc2c1)S(C)(=O)=O [Example 63, N-(6-chloro-4-(4-chlorophenoxy)pyridin-2-yl)-5-(2-(methylsulfonyl)propan-2-yl)benzo[b]thiophene-2-carboxamide]"
0.18,> 50,0.26,0.17,"CC(C)(c1ccc2sc(C(=O)Nc3cc(Cl)cc(Oc4ccc(Cl)cc4)n3)cc2c1)S(C)(=O)=O [Example 66, N-(4-chloro-6-(4-chlorophenoxy)pyridin-2-yl)-5-(2-(methylsulfonyl)propan-2-yl)benzo[b]thiophene-2-carboxamide]"
0.0057,> 50,0.0022,0.0018,"CC(C)Oc1cc(OC(F)(F)F)cc(C(C)(C)c2cc(Cl)cc(NC(=O)c3cc4cc(CS(C)(=O)=O)ccc4s3)c2)c1 [Example 16, N-(3-chloro-5-(2-(3-isopropoxy-5-(trifluoromethoxy)phenyl)propan-2-yl)phenyl)-5-((methylsulfonyl)methyl)benzo[b]thiophene-2-carboxamide]"
0.9,> 50,> 1.1,> 1.1,"CC(C)(c1ccc(Cl)cc1)c1cc(Cl)cc(NC(=O)c2cc3cc(CS(=O)(=O)C(F)(F)F)ccc3s2)c1 [Example 24, N-(3-chloro-5-(2-(4-chlorophenyl)propan-2-yl)phenyl)-5-(((trifluoromethyl)sulfonyl)methyl)benzo[b]thiophene-2-carboxamide]"
0.022,> 50,0.02,0.016,"CC(C)(c1ccc2sc(C(=O)Nc3cc(Cl)cc(Oc4cc(F)cc(Cl)c4)c3)cc2c1)S(C)(=O)=O [Example 47, N-(3-chloro-5-(3-chloro-5-fluorophenoxy)phenyl)-5-(2-(methylsulfonyl)propan-2-yl)benzo[b]thiophene-2-carboxamide]"
0.019,> 50,0.019,0.013,"CC(C)(c1ccc2sc(C(=O)Nc3cc(Cl)cc(Oc4ccc(Cl)cc4)c3)cc2c1)S(C)(=O)=O [Example 49, N-(3-chloro-5-(4-chlorophenoxy)phenyl)-5-(2-(methylsulfonyl)propan-2-yl)benzo[b]thiophene-2-carboxamide]"
> 10,> 50,> 1.1,> 1.1,"CC(C)(c1ccc(Cl)cc1)c1cc(NC(=O)c2cc3cc(C(C)(C)S(C)(=O)=O)ccc3s2)n(C(C)(C)C)n1 [Example 88, N-(1-(tert-butyl)-3-(2-(4-chlorophenyl)propan-2-yl)-1H-pyrazol-5-yl)-5-(2-(methylsulfonyl)propan-2-yl)benzo[b]thiophene-2-carboxamide]"
0.084,> 50,0.8,0.04,"CC(C)(c1ccc(Cl)cc1)c1cc(Cl)cc(NC(=O)c2cc3cc(C(C)(C)S(C)(=O)=O)c(Cl)cc3s2)c1 [Example 23, 6-chloro-N-(3-chloro-5-(2-(4-chlorophenyl)propan-2-yl)phenyl)-5-(2-(methylsulfonyl)propan-2-yl)benzo[b]thiophene-2-carboxamide]"
0.022,> 50,0.031,0.0082,"CC(C)(c1ccc2sc(C(=O)Nc3cc(Cl)cc(Oc4ccc(F)c(Cl)c4)c3)cc2c1)S(C)(=O)=O [Example 51, N-(3-chloro-5-(3-chloro-4-fluorophenoxy)phenyl)-5-(2-(methylsulfonyl)propan-2-yl)benzo[b]thiophene-2-carboxamide]"
0.015,> 50,0.01,0.0071,"CC(C)(c1ccc2sc(C(=O)Nc3cc(Cl)cc(Oc4ccc(OC(F)(F)F)cc4)c3)cc2c1)S(C)(=O)=O [Example 37, N-(3-chloro-5-(4-(trifluoromethoxy)phenoxy)phenyl)-5-(2-(methylsulfonyl)propan-2-yl)benzo[b]thiophene-2-carboxamide]"
0.072,> 50,0.26,0.1,"CC(C)(C)OC(=O)NCCOc1cc(NC(=O)c2cc3cc(C(C)(C)S(C)(=O)=O)ccc3s2)cc(Oc2ccc(Cl)cc2)c1 [Example 93, tert-butyl (2-(3-(4-chlorophenoxy)-5-(5-(2-(methylsulfonyl)propan-2-yl)benzo[b]thiophene-2-carboxamido)phenoxy)ethyl)carbamate]"
0.031,> 50,0.056,0.023,"CC(C)(c1ccc(F)cc1)c1cc(Cl)cc(NC(=O)c2cc3cc(C(C)(C)S(C)(=O)=O)ccc3s2)c1 [Example 18, N-(3-chloro-5-(2-(4-fluorophenyl)propan-2-yl)phenyl)-5-(2-(methylsulfonyl)propan-2-yl)benzo[b]thiophene-2-carboxamide]"
0.07,> 50,0.14,0.026,"CN(c1ccc(Cl)cc1)c1cc(NC(=O)c2cc3cc(C(C)(C)S(C)(=O)=O)ccc3s2)cc(Cl)n1 [Example 100, N-(2-chloro-6-((4-chlorophenyl)(methyl)amino)pyridin-4-yl)-5-(2-(methylsulfonyl)propan-2-yl)benzo[b]thiophene-2-carboxamide]"
0.015,> 50,0.024,0.014,"CC(C)(c1ccc(Cl)cc1)c1cc(Cl)cc(NC(=O)c2cc3cc(C(C)(C)S(C)(=O)=O)ccc3s2)c1 [Example 22, N-(3-chloro-5-(2-(4-chlorophenyl)propan-2-yl)phenyl)-5-(2-(methylsulfonyl)propan-2-yl)benzo[b]thiophene-2-carboxamide]"
